ChEMBL document CHEMBL2177079, “Free-Wilson and structural approaches to co-optimizing human and rodent isoform potency for 11β-hydroxysteroid dehydrogenase type 1 (11β-HSD1) inhibitors” (J Med Chem, 2012)
The source made the active and inactive calls. The rule behind the calls is not given here.

Experiments:
Rattus norvegicus [1] = experiment: (§1) Oral bioavailability in Han Wistar rat at 7.4 to 14.7 umol/kg; type: ADME, organism-based; conditions: in vivo
[2] = target: 11-beta-hydroxysteroid dehydrogenase 1 (Mus musculus, UniProt P50172); experiment: Inhibition of mouse 11beta-HSD1 by HTRF assay
11-beta-hydroxysteroid dehydrogenase 1 (Mus musculus, UniProt P50172), sequence (P50172 whole entry): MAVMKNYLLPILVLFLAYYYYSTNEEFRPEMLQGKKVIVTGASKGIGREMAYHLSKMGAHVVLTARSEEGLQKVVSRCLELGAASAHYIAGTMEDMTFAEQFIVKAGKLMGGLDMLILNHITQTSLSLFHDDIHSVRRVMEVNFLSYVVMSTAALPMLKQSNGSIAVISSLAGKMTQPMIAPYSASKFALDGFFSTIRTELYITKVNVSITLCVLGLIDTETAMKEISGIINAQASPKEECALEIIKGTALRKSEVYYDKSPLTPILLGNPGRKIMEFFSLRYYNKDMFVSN

[3] = Lipophilicity, log D at pH 7.4; type: physicochemical; conditions: buffer
[4] = Half life in Han Wistar rat at 4.7 umol/kg, iv; type: ADME, organism-based; conditions: in vivo
[5] = Half life in female beagle dog at 0.6 umol/kg, iv; type: ADME, organism-based, Canis lupus familiaris; conditions: in vivo
[6] = as §1; type: ADME, organism-based; conditions: Han Wistar, in vivo
[7] = Oral bioavailability in Han Wistar rat at 7 umol/kg; type: ADME, organism-based; conditions: in vivo
[8] = target: T1, 11-beta-hydroxysteroid dehydrogenase 1 (Homo sapiens, UniProt P28845); experiment: Inhibition of human 11beta-HSD1 by HTRF assay
T1 sequence (P28845 whole entry): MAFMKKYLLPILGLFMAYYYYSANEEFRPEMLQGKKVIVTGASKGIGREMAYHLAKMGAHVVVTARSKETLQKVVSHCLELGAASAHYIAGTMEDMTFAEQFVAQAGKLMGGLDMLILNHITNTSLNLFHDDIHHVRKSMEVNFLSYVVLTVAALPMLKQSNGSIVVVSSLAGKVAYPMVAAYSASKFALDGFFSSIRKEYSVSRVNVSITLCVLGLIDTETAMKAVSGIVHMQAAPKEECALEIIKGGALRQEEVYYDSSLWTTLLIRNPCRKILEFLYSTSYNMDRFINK

[9] = Volume of distribution at steady state in Han Wistar rat at 4.7 umol/kg, iv; type: ADME, organism-based; conditions: in vivo, read-out: Vdss
[10] = Intrinsic clearance in female beagle dog hepatocytes measured per 10^6 cells; type: ADME, cell-based, Canis lupus familiaris, Hepatocyte; conditions: read-out: CLH
[11] = Oral bioavailability in mouse at 11.7 umol/kg; type: ADME, organism-based; conditions: in vivo
Mus musculus [12] = experiment: Reduction in body weight in obese mouse at 300 mg/kg/day, po; type: functional, organism-based
[13] = Clearance in Han Wistar rat at 4.7 umol/kg, iv; type: ADME, organism-based; conditions: in vivo
[14] = Volume of distribution at steady state in male beagle dog at 0.6 umol/kg, iv; type: ADME, organism-based, Canis lupus familiaris; conditions: in vivo, read-out: Vdss
[15] = AUC in female beagle dog at 1.2 umol/kg, po; type: ADME, organism-based, Canis lupus familiaris; conditions: plasma
[16] = Oral bioavailability in male beagle dog at 1.2 umol/kg; type: ADME, organism-based, Canis lupus familiaris; conditions: in vivo
[17] = target: T2, 11-beta-hydroxysteroid dehydrogenase type 2 (Homo sapiens, UniProt P80365); experiment: Inhibition of human 11beta-HSD2 by HTRF assay
T2 sequence (P80365 whole entry): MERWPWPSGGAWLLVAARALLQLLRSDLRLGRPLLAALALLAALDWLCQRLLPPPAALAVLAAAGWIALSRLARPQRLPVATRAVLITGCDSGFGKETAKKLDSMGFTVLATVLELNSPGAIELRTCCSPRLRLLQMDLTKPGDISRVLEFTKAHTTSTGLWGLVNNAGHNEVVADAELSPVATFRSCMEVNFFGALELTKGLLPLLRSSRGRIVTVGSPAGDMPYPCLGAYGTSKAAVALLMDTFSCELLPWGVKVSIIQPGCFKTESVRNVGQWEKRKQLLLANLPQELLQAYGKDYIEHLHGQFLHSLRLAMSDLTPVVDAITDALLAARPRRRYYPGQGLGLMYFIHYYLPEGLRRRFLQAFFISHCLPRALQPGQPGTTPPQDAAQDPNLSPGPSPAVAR

[18] = target: Corticosteroid 11-beta-dehydrogenase isozyme 1 (Mus musculus) (UniProt P50172); experiment: Inhibition of 11beta-HSD1 in po dosed mouse liver assessed as target engagement; set-up: scale not given: the % may be the effect or the level left
[19] = Half life in mouse at 4.7 umol/kg, iv; type: ADME, organism-based; conditions: in vivo
Mus musculus [20] = experiment: Reduction in body weight in obese mouse at 50 mg/kg/day, po; type: functional, organism-based
[21] = Fraction unbound in female beagle dog plasma; type: ADME, cell-free, Canis lupus familiaris
[22] = Half life in male beagle dog at 0.6 umol/kg, iv; type: ADME, organism-based, Canis lupus familiaris; conditions: in vivo
[23] = Oral bioavailability in female beagle dog at 1.2 umol/kg; type: ADME, organism-based, Canis lupus familiaris; conditions: in vivo
[24] = AUC in Han Wistar rat at 7 umol/kg, po; type: ADME, organism-based, Plasma; conditions: whole blood
[25] = Clearance in male beagle dog at 0.6 umol/kg, iv; type: ADME, organism-based, Canis lupus familiaris; conditions: in vivo
[26] = Intrinsic clearance in male beagle dog hepatocytes measured per 10^6 cells; type: ADME, cell-based, Canis lupus familiaris, Hepatocyte; conditions: read-out: CLH
[27] = Intrinsic clearance in mouse hepatocytes measured per 10^6 cells; type: ADME, cell-based, Hepatocyte; conditions: read-out: CLH
[28] = AUC in mouse at 11.7 umol/kg, po; type: ADME, organism-based, Plasma; conditions: whole blood
[29] = Fraction unbound in mouse plasma; type: ADME, cell-free
[30] = Fraction unbound in male beagle dog plasma; type: ADME, cell-free, Canis lupus familiaris
[31] = target: T3, 17-beta-hydroxysteroid dehydrogenase type 3 (Homo sapiens) (UniProt P37058); experiment: Inhibition of human 17beta-HSD3 at 10 uM by HPLC assay
T3 sequence (whole entry): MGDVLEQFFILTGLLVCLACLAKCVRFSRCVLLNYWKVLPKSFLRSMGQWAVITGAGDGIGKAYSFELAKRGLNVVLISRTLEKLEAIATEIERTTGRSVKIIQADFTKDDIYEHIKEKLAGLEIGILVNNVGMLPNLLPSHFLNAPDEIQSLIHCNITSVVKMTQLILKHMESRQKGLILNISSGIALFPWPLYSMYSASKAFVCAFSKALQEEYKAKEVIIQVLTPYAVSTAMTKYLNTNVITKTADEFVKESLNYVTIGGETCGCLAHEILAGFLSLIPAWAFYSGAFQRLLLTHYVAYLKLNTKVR

[32] = Fraction unbound in Han Wistar rat plasma; type: ADME, cell-free
[33] = target: T1, 11-beta-hydroxysteroid dehydrogenase 1; experiment: Inhibition of human 11beta-HSD1 by HPLC assay
[34] = Intrinsic clearance in Han Wistar rat hepatocytes measured per 10^6 cells; type: ADME, cell-based, Hepatocyte; conditions: read-out: CLH
[35] = Volume of distribution at steady state in female beagle dog at 0.6 umol/kg, iv; type: ADME, organism-based, Canis lupus familiaris; conditions: in vivo, read-out: Vdss
[36] = Clearance in mouse at 4.7 umol/kg, iv; type: ADME, organism-based; conditions: in vivo
[37] = AUC in male beagle dog at 1.2 umol/kg, po; type: ADME, organism-based, Canis lupus familiaris; conditions: plasma
[38] = target: T4, 17-beta-hydroxysteroid dehydrogenase type 1 (Homo sapiens, UniProt P14061); experiment: Inhibition of human 17beta-HSD1 by HPLC assay
T4 sequence (P14061 whole entry): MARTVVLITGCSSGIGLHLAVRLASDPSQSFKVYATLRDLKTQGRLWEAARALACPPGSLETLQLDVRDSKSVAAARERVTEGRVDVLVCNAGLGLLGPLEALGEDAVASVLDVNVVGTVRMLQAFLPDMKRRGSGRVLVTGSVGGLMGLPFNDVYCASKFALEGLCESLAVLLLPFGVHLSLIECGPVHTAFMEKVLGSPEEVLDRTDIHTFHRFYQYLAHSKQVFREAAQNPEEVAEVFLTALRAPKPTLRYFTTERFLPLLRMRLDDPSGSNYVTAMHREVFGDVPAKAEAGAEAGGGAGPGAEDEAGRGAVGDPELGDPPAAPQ

[39] = Intrinsic clearance in human hepatocytes measured per 10^6 cells; type: ADME, cell-based, Hepatocyte; conditions: read-out: CLH
Mus musculus [40] = experiment: Reduction in fasting plasma glucose levels in obese mouse at 300 mg/kg/day, po; type: functional, organism-based
Mus musculus [41] = experiment: Inhibition of 11beta-HSD1 in po dosed C57 mouse epididymal adipose tissue assessed as conversion of [3H]cortisone to [3H]cortisol; type: functional, organism-based
[42] = Fraction unbound in human plasma; type: ADME, cell-free
Mus musculus [43] = experiment: Reduction in fasting plasma glucose levels in obese mouse at 50 mg/kg/day, po; type: functional, organism-based
[44] = Clearance in female beagle dog at 0.6 umol/kg, iv; type: ADME, organism-based, Canis lupus familiaris; conditions: in vivo
[45] = Volume of distribution at steady state in mouse at 4.7 umol/kg, iv; type: ADME, organism-based; conditions: in vivo, read-out: Vdss
[46] = AUC in Han Wistar rat at 11.7 umol/kg, po; type: ADME, organism-based; conditions: plasma
Rattus norvegicus [47] = experiment: Inhibition of 11beta-HSD1 in po dosed Han Wistar rat epididymal adipose tissue assessed as conversion of [3H]cortisone to [3H]cortisol; type: functional, organism-based
[48] = Half life in female beagle dog at 1 umol/kg, iv; type: ADME, organism-based, Canis lupus familiaris; conditions: in vivo
[49] = Clearance in male beagle dog at 1 umol/kg, iv; type: ADME, organism-based, Canis lupus familiaris; conditions: in vivo
[50] = Volume of distribution at steady state in female beagle dog at 1 umol/kg, iv; type: ADME, organism-based, Canis lupus familiaris; conditions: in vivo, read-out: Vdss
[51] = Half life in male beagle dog at 1 umol/kg, iv; type: ADME, organism-based, Canis lupus familiaris; conditions: in vivo
[52] = Oral bioavailability in Han Wistar rat at 11.7 umol/kg; type: ADME, organism-based; conditions: in vivo
[53] = Volume of distribution at steady state in male beagle dog at 1 umol/kg, iv; type: ADME, organism-based, Canis lupus familiaris; conditions: in vivo, read-out: Vdss
[54] = Clearance in female beagle dog at 1 umol/kg, iv; type: ADME, organism-based, Canis lupus familiaris; conditions: in vivo

Structure (SMILES): CC(C)(CO)Nc1ncc(C(=O)N[C@H]2C3CC4CC2C[C@](O)(C4)C3)c(OC2CCC2)n1
- F (Rattus norvegicus [1]): 161%
- IC50 [2]: 20 nM
- logD [3]: 3.1

Structure (SMILES): O=C(N[C@H]1C2CC3CC1C[C@](O)(C3)C2)c1cnc(N[C@H]2CCOC2)nc1C1CCCC1
- half-life [4]: 144 min
- half-life [5]: 36 min
- bioavailability [6]: 61%
- bioavailability [7]: 61%
- IC50 [8]: 21 nM
- IC50 [2]: 32 nM
- Vd [9]: 1 L/kg
- hepatocyte CLint [10]: 6.7 µL/min/1e6 cells
- bioavailability [11]: 34%
- Activity (Mus musculus [12]): Active
- clearance [13]: 9 mL/min/kg
- Vd [14]: 0.7 L/kg
- AUC [15]: 0.42 µM·h
- bioavailability [16]: 15%
- IC50 [17]: > 30000 nM
- Activity [18]: >90%
- half-life [19]: 42 min
- Activity (Mus musculus [20]): Active
- fraction unbound [21]: 0.38
- half-life [22]: 36 min
- bioavailability [23]: 30%
- AUC [24]: 5.6 µM·h
- logD [3]: 2.4
- clearance [25]: 17 mL/min/kg
- hepatocyte CLint [26]: 6.7 µL/min/1e6 cells
- hepatocyte CLint [27]: 9.1 µL/min/1e6 cells
- AUC [28]: 1.5 µM·h
- fraction unbound [29]: 0.3
- fraction unbound [30]: 0.38
- inhibition [31]: 7%
- fraction unbound [32]: 0.35
- IC50 [33]: 1.6 nM
- hepatocyte CLint [34]: < 2 µL/min/1e6 cells
- Vd [35]: 0.6 L/kg
- clearance [36]: 57 mL/min/kg
- AUC [37]: 0.19 µM·h
- IC50 [38]: > 100000 nM
- hepatocyte CLint [39]: < 2 µL/min/1e6 cells
- Activity (Mus musculus [40]): Active
- IC50 (Mus musculus [41]): 50 nM
- fraction unbound [42]: 0.38
- Activity (Mus musculus [43]): inactive
- clearance [44]: 14 mL/min/kg
- Vd [45]: 2.4 L/kg

Structure (SMILES): O=C(N[C@H]1C2CC3CC1C[C@](O)(C3)C2)c1cnc(NC2CCOCC2)nc1C1CCC1
- half-life [4]: 36 min
- bioavailability [6]: 100%
- IC50 [8]: 28 nM
- IC50 [2]: 27 nM
- Vd [9]: 0.9 L/kg
- hepatocyte CLint [10]: < 2 µL/min/1e6 cells
- bioavailability [11]: 57%
- clearance [13]: 32 mL/min/kg
- AUC [15]: 0.16 µM·h
- AUC [46]: 10.4 µM·h
- IC50 (Rattus norvegicus [47]): 87 nM
- bioavailability [16]: 34%
- IC50 [17]: > 30000 nM
- half-life [19]: 24 min
- fraction unbound [21]: > 0.66
- bioavailability [23]: 23%
- logD [3]: 2.1
- hepatocyte CLint [26]: < 2 µL/min/1e6 cells
- hepatocyte CLint [27]: 3.6 µL/min/1e6 cells
- AUC [28]: 2.7 µM·h
- fraction unbound [29]: > 0.5
- fraction unbound [30]: > 0.66
- inhibition [31]: 4%
- fraction unbound [32]: 0.55
- IC50 [33]: 14 nM
- hepatocyte CLint [34]: < 2 µL/min/1e6 cells
- half-life [48]: 42 min
- clearance [49]: 19 mL/min/kg
- clearance [36]: 42 mL/min/kg
- AUC [37]: 0.38 µM·h
- Vd [50]: 1.6 L/kg
- IC50 [38]: > 35000 nM
- hepatocyte CLint [39]: < 2 µL/min/1e6 cells
- half-life [51]: 48 min
- bioavailability [52]: 100%
- Vd [53]: 1.1 L/kg
- IC50 (Mus musculus [41]): 30 nM
- fraction unbound [42]: 0.52
- Vd [45]: 1.1 L/kg
- clearance [54]: 29 mL/min/kg
